#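 Five compound concentrations were applied to cells in 96-well plates for 48 hours; endpoints were derived by simple linear interpolation of the resulting dose-response curve. Abbreviation: GI50, concentration required for 50% inhibition of growth. TGI: concentration producing complete growth inhibition.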
# Assays:
# Experiment in all cases: inhibition of tumour cell growth, NCI panel, 48 h
# A498 renal = test system: A498 renal
# A549 NSCLC = test system: A549 NSCLC
# ACHN renal = test system: ACHN renal
# CAKI-1 renal = test system: CAKI-1 renal
# COLO 205 colon = test system: COLO 205 colon
# DU-145 prostate = test system: DU-145 prostate
# EKVX NSCLC = test system: EKVX NSCLC
# HCT-116 colon = test system: HCT-116 colon
# HCT-15 colon = test system: HCT-15 colon
# HOP-92 NSCLC = test system: HOP-92 NSCLC
# HT29 colon = test system: HT29 colon
# IGROV1 ovarian = test system: IGROV1 ovarian
# KM12 colon = test system: KM12 colon
# M14 melanoma = test system: M14 melanoma
# MDA-MB-231 breast = test system: MDA-MB-231 breast
# MDA-MB-435 = test system: MDA-MB-435
# MDA-N = test system: MDA-N
# NCI-H226 lung = test system: NCI-H226 lung
# NCI-H23 lung = test system: NCI-H23 lung
# NCI/ADR-RES ovarian = test system: NCI/ADR-RES ovarian
# OVCAR-3 ovarian = test system: OVCAR-3 ovarian
# OVCAR-4 ovarian = test system: OVCAR-4 ovarian
# OVCAR-5 ovarian = test system: OVCAR-5 ovarian
# OVCAR-8 ovarian = test system: OVCAR-8 ovarian
# PC-3 prostate = test system: PC-3 prostate
# RXF 393 renal = test system: RXF 393 renal
# SF-268 CNS = test system: SF-268 CNS
# SF-295 CNS = test system: SF-295 CNS
# SF-539 CNS = test system: SF-539 CNS
# SK-MEL-5 melanoma = test system: SK-MEL-5 melanoma
# SN12C renal = test system: SN12C renal
# SNB-19 CNS = test system: SNB-19 CNS
# SNB-75 CNS = test system: SNB-75 CNS
# SW-620 colon = test system: SW-620 colon
# TK-10 renal = test system: TK-10 renal
# U251 CNS = test system: U251 CNS
# UO-31 renal = test system: UO-31 renal
# 786-0 renal = test system: 786-0 renal
# CCRF-CEM leukemia = test system: CCRF-CEM leukemia
# HCC-2998 colon = test system: HCC-2998 colon
# HL-60(TB) leukemia = test system: HL-60(TB) leukemia
# HOP-62 NSCLC = test system: HOP-62 NSCLC
# HS 578T breast = test system: HS 578T breast
# K-562 leukemia = test system: K-562 leukemia
# LOX IMVI melanoma = test system: LOX IMVI melanoma
# MALME-3M melanoma = test system: MALME-3M melanoma
# MCF7 breast = test system: MCF7 breast
# MOLT-4 leukemia = test system: MOLT-4 leukemia
# NCI-H460 lung = test system: NCI-H460 lung
# NCI-H522 lung = test system: NCI-H522 lung
# RPMI-8226 leukemia = test system: RPMI-8226 leukemia
# SK-MEL-2 melanoma = test system: SK-MEL-2 melanoma
# SK-MEL-28 melanoma = test system: SK-MEL-28 melanoma
# SK-OV-3 ovarian = test system: SK-OV-3 ovarian
# T-47D breast = test system: T-47D breast
# UACC-257 melanoma = test system: UACC-257 melanoma
# UACC-62 melanoma = test system: UACC-62 melanoma
# BT-549 breast = test system: BT-549 breast
# SR leukemia = test system: SR leukemia
compound,measurement,setting,value
CC1(C)CC(=O)C(C(CC(c2ccccc2)c2cc3c(cc2O)OCO3)C2=C(O)CC(C)(C)CC2=O)=C(O)C1 (stereo not drawn),TGI,A498 renal,> 10 µM
same,TGI,A549 NSCLC,> 10 µM
same,TGI,ACHN renal,> 10 µM
same,TGI,CAKI-1 renal,> 10 µM
same,TGI,COLO 205 colon,> 10 µM
same,TGI,DU-145 prostate,> 10 µM
same,TGI,EKVX NSCLC,> 10 µM
same,TGI,HCT-116 colon,> 10 µM
same,TGI,HCT-15 colon,> 10 µM
same,TGI,HOP-92 NSCLC,> 10 µM
same,TGI,HT29 colon,> 10 µM
same,TGI,IGROV1 ovarian,> 10 µM
same,TGI,KM12 colon,> 10 µM
same,TGI,M14 melanoma,> 10 µM
same,TGI,MDA-MB-231 breast,> 10 µM
same,TGI,MDA-MB-435,> 10 µM
same,TGI,MDA-N,> 10 µM
same,TGI,NCI-H226 lung,> 10 µM
same,TGI,NCI-H23 lung,> 10 µM
same,TGI,NCI/ADR-RES ovarian,> 10 µM
same,TGI,OVCAR-3 ovarian,> 10 µM
same,TGI,OVCAR-4 ovarian,> 10 µM
same,TGI,OVCAR-5 ovarian,> 10 µM
same,TGI,OVCAR-8 ovarian,> 10 µM
same,TGI,PC-3 prostate,> 10 µM
same,TGI,RXF 393 renal,> 10 µM
same,TGI,SF-268 CNS,> 10 µM
same,TGI,SF-295 CNS,> 10 µM
same,TGI,SF-539 CNS,> 10 µM
same,TGI,SK-MEL-5 melanoma,> 10 µM
same,TGI,SN12C renal,> 10 µM
same,TGI,SNB-19 CNS,> 10 µM
same,TGI,SNB-75 CNS,> 10 µM
same,TGI,SW-620 colon,> 10 µM
same,TGI,TK-10 renal,> 10 µM
same,TGI,U251 CNS,> 10 µM
same,TGI,UO-31 renal,> 10 µM
S=C1NC2=C(CSC/C2=C\c2cccc(Br)c2)C(c2cccc(Br)c2)N1 (stereo not drawn),TGI,786-0 renal,> 100 µM
same,TGI,A498 renal,> 100 µM
same,TGI,A549 NSCLC,> 100 µM
same,TGI,ACHN renal,> 100 µM
same,TGI,CAKI-1 renal,> 100 µM
same,TGI,CCRF-CEM leukemia,> 100 µM
same,TGI,COLO 205 colon,> 100 µM
same,TGI,DU-145 prostate,> 100 µM
same,TGI,EKVX NSCLC,> 100 µM
same,TGI,HCC-2998 colon,> 100 µM
same,TGI,HCT-116 colon,> 100 µM
same,TGI,HCT-15 colon,> 100 µM
same,TGI,HL-60(TB) leukemia,> 100 µM
same,TGI,HOP-62 NSCLC,> 100 µM
same,TGI,HS 578T breast,> 100 µM
same,TGI,HT29 colon,> 100 µM
same,TGI,IGROV1 ovarian,> 100 µM
same,TGI,K-562 leukemia,> 100 µM
same,TGI,KM12 colon,> 100 µM
same,TGI,LOX IMVI melanoma,> 100 µM
same,TGI,M14 melanoma,> 100 µM
same,TGI,MALME-3M melanoma,> 100 µM
same,TGI,MCF7 breast,> 100 µM
same,TGI,MDA-MB-231 breast,> 100 µM
same,TGI,MDA-MB-435,> 100 µM
same,TGI,MDA-N,> 100 µM
same,TGI,MOLT-4 leukemia,> 100 µM
same,TGI,NCI-H226 lung,> 100 µM
same,TGI,NCI-H23 lung,> 100 µM
same,TGI,NCI-H460 lung,> 100 µM
same,TGI,NCI-H522 lung,> 100 µM
same,TGI,NCI/ADR-RES ovarian,> 100 µM
same,TGI,OVCAR-3 ovarian,> 100 µM
same,TGI,OVCAR-4 ovarian,> 100 µM
same,TGI,OVCAR-5 ovarian,> 100 µM
same,TGI,OVCAR-8 ovarian,> 100 µM
same,TGI,PC-3 prostate,> 100 µM
same,TGI,RPMI-8226 leukemia,> 100 µM
same,TGI,RXF 393 renal,> 100 µM
same,TGI,SF-268 CNS,> 100 µM
same,TGI,SF-295 CNS,> 100 µM
same,TGI,SF-539 CNS,> 100 µM
same,TGI,SK-MEL-2 melanoma,> 100 µM
same,TGI,SK-MEL-28 melanoma,> 100 µM
same,TGI,SK-MEL-5 melanoma,> 100 µM
same,TGI,SK-OV-3 ovarian,> 100 µM
same,TGI,SN12C renal,> 100 µM
same,TGI,SNB-19 CNS,> 100 µM
same,TGI,SNB-75 CNS,> 100 µM
same,TGI,SW-620 colon,> 100 µM
same,TGI,T-47D breast,> 100 µM
same,TGI,TK-10 renal,> 100 µM
same,TGI,U251 CNS,> 100 µM
same,TGI,UACC-257 melanoma,> 100 µM
same,TGI,UACC-62 melanoma,> 100 µM
O=C(c1ccco1)c1c(C(F)(F)F)nc2ccc(Cl)cc2[n+]1[O-],GI50,786-0 renal,> 100 µM
same,TGI,786-0 renal,> 100 µM
same,GI50,A498 renal,23.1 µM
same,TGI,A498 renal,68 µM
same,GI50,A549 NSCLC,> 100 µM
same,TGI,A549 NSCLC,> 100 µM
same,GI50,ACHN renal,> 100 µM
same,TGI,ACHN renal,> 100 µM
same,GI50,BT-549 breast,> 100 µM
same,TGI,BT-549 breast,> 100 µM
same,GI50,CAKI-1 renal,26.6 µM
same,TGI,CAKI-1 renal,85.8 µM
same,GI50,CCRF-CEM leukemia,> 100 µM
same,TGI,CCRF-CEM leukemia,> 100 µM
same,GI50,COLO 205 colon,70.4 µM
same,TGI,COLO 205 colon,> 100 µM
same,GI50,DU-145 prostate,> 100 µM
same,TGI,DU-145 prostate,> 100 µM
same,GI50,EKVX NSCLC,56.8 µM
same,TGI,EKVX NSCLC,> 100 µM
same,GI50,HCC-2998 colon,21.8 µM
same,TGI,HCC-2998 colon,46.1 µM
same,GI50,HCT-116 colon,> 100 µM
same,TGI,HCT-116 colon,> 100 µM
same,GI50,HCT-15 colon,61 µM
same,TGI,HCT-15 colon,> 100 µM
same,GI50,HL-60(TB) leukemia,25.2 µM
same,TGI,HL-60(TB) leukemia,85.1 µM
same,GI50,HOP-62 NSCLC,> 100 µM
same,TGI,HOP-62 NSCLC,> 100 µM
same,GI50,HOP-92 NSCLC,44 µM
same,TGI,HOP-92 NSCLC,> 100 µM
same,GI50,HS 578T breast,19.8 µM
same,TGI,HS 578T breast,51.4 µM
same,GI50,HT29 colon,> 100 µM
same,TGI,HT29 colon,> 100 µM
same,GI50,IGROV1 ovarian,> 100 µM
same,TGI,IGROV1 ovarian,> 100 µM
same,GI50,K-562 leukemia,33.2 µM
same,TGI,K-562 leukemia,> 100 µM
same,GI50,KM12 colon,> 100 µM
same,TGI,KM12 colon,> 100 µM
same,GI50,LOX IMVI melanoma,> 100 µM
same,TGI,LOX IMVI melanoma,> 100 µM
same,GI50,M14 melanoma,> 100 µM
same,TGI,M14 melanoma,> 100 µM
same,GI50,MALME-3M melanoma,> 100 µM
same,TGI,MALME-3M melanoma,> 100 µM
same,GI50,MCF7 breast,> 100 µM
same,TGI,MCF7 breast,> 100 µM
same,GI50,MDA-MB-231 breast,> 100 µM
same,TGI,MDA-MB-231 breast,> 100 µM
same,GI50,MDA-MB-435,> 100 µM
same,TGI,MDA-MB-435,> 100 µM
same,GI50,MOLT-4 leukemia,> 100 µM
same,TGI,MOLT-4 leukemia,> 100 µM
same,GI50,NCI-H226 lung,> 100 µM
same,TGI,NCI-H226 lung,> 100 µM
same,GI50,NCI-H23 lung,69.5 µM
same,TGI,NCI-H23 lung,> 100 µM
same,GI50,NCI-H460 lung,> 100 µM
same,TGI,NCI-H460 lung,> 100 µM
same,GI50,NCI-H522 lung,83.1 µM
same,TGI,NCI-H522 lung,> 100 µM
same,GI50,NCI/ADR-RES ovarian,> 100 µM
same,TGI,NCI/ADR-RES ovarian,> 100 µM
same,GI50,OVCAR-3 ovarian,> 100 µM
same,TGI,OVCAR-3 ovarian,> 100 µM
same,GI50,OVCAR-4 ovarian,> 100 µM
same,TGI,OVCAR-4 ovarian,> 100 µM
same,GI50,OVCAR-5 ovarian,> 100 µM
same,TGI,OVCAR-5 ovarian,> 100 µM
same,GI50,OVCAR-8 ovarian,> 100 µM
same,TGI,OVCAR-8 ovarian,> 100 µM
same,GI50,PC-3 prostate,> 100 µM
same,TGI,PC-3 prostate,> 100 µM
same,GI50,RPMI-8226 leukemia,> 100 µM
same,TGI,RPMI-8226 leukemia,> 100 µM
same,GI50,RXF 393 renal,70.3 µM
same,TGI,RXF 393 renal,> 100 µM
same,GI50,SF-268 CNS,> 100 µM
same,TGI,SF-268 CNS,> 100 µM
same,GI50,SF-295 CNS,> 100 µM
same,TGI,SF-295 CNS,> 100 µM
same,GI50,SF-539 CNS,> 100 µM
same,TGI,SF-539 CNS,> 100 µM
same,GI50,SK-MEL-2 melanoma,> 100 µM
same,TGI,SK-MEL-2 melanoma,> 100 µM
same,GI50,SK-MEL-28 melanoma,> 100 µM
same,TGI,SK-MEL-28 melanoma,> 100 µM
same,GI50,SK-MEL-5 melanoma,17.5 µM
same,TGI,SK-MEL-5 melanoma,31.6 µM
same,GI50,SK-OV-3 ovarian,> 100 µM
same,TGI,SK-OV-3 ovarian,> 100 µM
same,GI50,SN12C renal,> 100 µM
same,TGI,SN12C renal,> 100 µM
same,GI50,SNB-19 CNS,> 100 µM
same,TGI,SNB-19 CNS,> 100 µM
same,GI50,SNB-75 CNS,54 µM
same,TGI,SNB-75 CNS,> 100 µM
same,GI50,SR leukemia,86.6 µM
same,TGI,SR leukemia,> 100 µM
same,GI50,SW-620 colon,13.4 µM
same,TGI,SW-620 colon,29.6 µM
same,GI50,T-47D breast,> 100 µM
same,TGI,T-47D breast,> 100 µM
same,GI50,TK-10 renal,> 100 µM
same,TGI,TK-10 renal,> 100 µM
same,GI50,U251 CNS,> 100 µM
same,TGI,U251 CNS,> 100 µM
same,GI50,UACC-257 melanoma,> 100 µM
same,TGI,UACC-257 melanoma,> 100 µM
same,GI50,UACC-62 melanoma,> 100 µM
same,TGI,UACC-62 melanoma,> 100 µM
same,GI50,UO-31 renal,> 100 µM
same,TGI,UO-31 renal,> 100 µM

# Source: PubChem BioAssay (NCI)
